# Read-outs that look alike come from different tables or passages of the source.
# Experiments:
# Format in all cases: in vivo, SD rats
# [1] = system: rats with cerebral ischemic reperfusion injury
# Protocol: 336 healthy male SD rats weighing 250-300 g, provided by the Experimental Animal Center of the Fourth Military Medical University, were randomly divided into 14 groups: the sham operation group, the ischemic reperfusion group, and Examples 1-12 groups (i.e., the Example groups).
# (§1) Rats were intraperitoneally injected with 10% chloral hydrate 350 mg/kg after anesthesia and opened up at the center of the neck in accordance with the Zea Longa modified method. The right common carotid artery was separated, and the right external carotid artery branches was ligated. A small opening was made at the distal end of the external carotid artery, and a previously prepared thread was inserted through the common carotid artery and the external carotid artery bifurcation into the internal carotid artery, till the anterior end of the middle cerebral artery, with an immersed depth of 18 to 19 mm. The thread was then secured, and the wound was sutured layer by layer. After the operation, the rats were placed in a clean incubator to wake up. […] The sham operation group, the ischemic reperfusion group, and the Example groups were prepared strictly according to the requirements of the cerebral ischemic reperfusion model, while in the sham operation group the thread was put only into the external carotid artery. The animals were allowed to eat and drink freely after waking up. After 2 h, the thread was pulled out to achieve reperfusion. The sham operation group, the ischemic reperfusion group, and the Example groups were administered intravenously the aqueous solution of the biphenyl derivatives in PEG400 at 40 mg/kg (40 mg/kg means that 40 mg of the test compound per kg of the body weight of rats) 30 min before reperfusion and 12 h after reperfusion, respectively. The sham operation group and the ischemic reperfusion group were injected with the same amount of blank PEG400 aqueous solution at the same time point.
# The neurological impairment was scored in each group 24 h after reperfusion. The scoring was in accordance with the Longa 5-grade method: grade 0: no nerve injury symptom; grade 1: inability of stretching the contralateral forepaw; grade 2: circling to the opposite side; grade 3: tumbling to the opposite side; grade 4: no autonomous activity with loss of consciousness.
# Fas = Fas determination (immunohistochemical method), permanent cerebral ischemia model
# Protocol: as §1, with “the permanent cerebral ischemia model” for “the ischemic reperfusion”, “up.” for “up. After 2 h, the thread was pulled out to achieve reperfusion.”, “before insertion of thread” for “before reperfusion”, “after embolism,” for “after reperfusion,”
# (§2) 24 hours after the embolism, 8 rats in each group were sacrificed by decapitation, the brain was removed, rinsed with PBS (pH 7.4) at −20°i for 20 min, evenly sliced (with a thickness of 2 mm), stained in a 2% TTC solution at 37°% in the dark for 30 min, fixed in 10% formalin for 24 h, and photographs were taken to analyze the infarct volume. A mixture of femoral arterial and venous blood was drawn from another 8 rats in each group under anesthesia, placed in a low temperature centrifuge at 4° C., centrifuged at 3500 r/min for 20 min, and the supernatant was stored in a refrigerator at −20° C. ready for SOD and MDA detection. After the blood was drawn, a perfusion needle was insert through the apex to the ascending aorta, and saline at 4° C. was rapid infused until the effluent became clear, followed by 4% paraformaldehyde phosphate buffer perfusion for fixation; the brain was removed by craniotomy, and brain tissues 2 mm in front of and behind the optic chiasma were taken and fixed, dehydrated, rendered transparent, impregnated in wax, and embedded. Brain continuous coronary tissue pathological sections were consecutively cut for later use. The remaining 8 rats in each group were sacrificed, brains were removed, the ischemic brain hemispheres were immediately taken on an ice tray, and 10% brain tissue homogenate was prepared for the detection of IL-1β and TNF-α.
# The immunohistochemical method was used for determination. Brain tissue paraffin sections were dewaxed into water, washed with 3% H2O2 to eliminate endogenous peroxidase activity, and rinsed with distilled water for 3 times. Sodium citrate buffer was used for antigen heat repairing, and blocking with calf serum was carried out at room temperature for 15 min; a rabbit anti-mouse Fas antibody was added dropwise, allowed to stand at 4°t overnight, biotinylated goat anti-rabbit IgG was added dropwise, and heated in a water bath at 37°a for 20 min. Washing with PBS for 5 min was continuously repeated 4 times, followed by staining with DAB and sufficient washing without counterstaining. The sections were then gradient dehydrated with alcohol, made transparent with toluene, sealed and fixed. Images were captured by a video camera under high-power optical microscope and inputted into the image analysis system for image analysis. […]
# MDA [2] = test: MDA determination, permanent cerebral ischemia model
# Protocol: as §1, with “the permanent cerebral ischemia model” for “the ischemic reperfusion”, “up.” for “up. After 2 h, the thread was pulled out to achieve reperfusion.”, “before insertion of thread” for “before reperfusion”, “after embolism,” for “after reperfusion,”
# as §2
# (§3) SOD and MDA were determined strictly in accordance with instructions of the kit.
# MDA [3] = test: MDA determination, cerebral ischemic reperfusion MCAO model
# Protocol: as §1
# as §2, with “reperfusion,” for “the embolism,”, “−20° i” for “−20°i”
# as §3
# [4] = ischemic reperfusion MCAO rats, 40 mg/kg intravenously 30 min before and 12 h after reperfusion, scored 24 h after reperfusion, Longa grade 0-4
# [5] = permanent cerebral ischemia model rats, 40 mg/kg intravenously, brain sections 24 h after the embolism, gray scale inversely proportional to positive expression
# [6] = permanent cerebral ischemia model rats, 40 mg/kg intravenously, serum, 24 h after the embolism
# [7] = ischemic reperfusion MCAO rats, 40 mg/kg intravenously 30 min before and 12 h after reperfusion, serum, 24 h after reperfusion
# [8] = permanent cerebral ischemia model rats, edaravone 3 mg/kg
Compound,"Average score of neurological impairment [1, 4]",Fas average gray scale (Fas; [5]),MDA CONTENT (MDA [2]; [6]) [mmol/mL],MDA CONTENT (MDA [3]; [7]) [mmol/mL],other results
"3,3′,5,5′-tetraisopropylbiphenyl-4,4′-bis(oxymethylene phosphate) [Example 3 group]",2.4,,,,"Fas average gray scale (Fas; rat, in vivo, iv, 40 mg/kg): 143.39 ± 4.23; MDA CONTENT (MDA [2]; rat, in vivo, iv, 40 mg/kg): 5.07 ± 0.77 mmol/mL; MDA CONTENT (MDA [3]; rat, in vivo, iv, 40 mg/kg): 5.36 ± 0.47 mmol/mL"
"CC(C)c1cc(-c2cc(C(C)C)c(Cl)c(C(C)C)c2)cc(C(C)C)c1O [Example 9 group, 4-chloro-4′-hydroxy-3,3′,5,5′-tetraisopropylbiphenyl]",,,,,"Average score of neurological impairment ([1]; rat, in vivo, iv, 40 mg/kg): 2.4; Fas average gray scale (Fas; rat, in vivo, iv, 40 mg/kg): 144.31 ± 5.49; MDA CONTENT (MDA [2]; rat, in vivo, iv, 40 mg/kg): 5.26 ± 0.49 mmol/mL; MDA CONTENT (MDA [3]; rat, in vivo, iv, 40 mg/kg): 5.61 ± 0.71 mmol/mL"
"CC(=O)OC(C)Oc1c(C(C)C)cc(-c2cc(C(C)C)c(O)c(C(C)C)c2)cc1C(C)C (stereo not shown) [Example 12 group, Ethyl 1-(4′-hydroxy-3,3′,5,5′-tetraisopropylbiphenyl-4-oxo)acetate]",2.4,139.48 ± 5.72,6.03 ± 0.36,5.37 ± 0.55,
"CC(=O)Oc1c(C(C)C)cc(-c2cc(C(C)C)c(O)c(C(C)C)c2)cc1C(C)C [Example 1 group, 4′-hydroxy-3,3′,5,5′-tetraisopropylbiphenyl-4-acetate]",2.0,,,,"MDA CONTENT (MDA [2]; permanent cerebral ischemia model rats, 40 mg/kg intravenously, serum, 24 h after the embolism, 40 mg/kg): 4.49 ± 0.59 mmol/mL; MDA CONTENT (MDA [3]; ischemic reperfusion MCAO rats, 40 mg/kg intravenously 30 min before and 12 h after reperfusion, serum, 24 h after reperfusion, 40 mg/kg): 4.74 ± 0.67 mmol/mL"
CC(C)c1cc(-c2cc(C(C)C)c(OC=O)c(C(C)C)c2)cc(C(C)C)c1O [Example 10 group],2.2,140.62 ± 3.85,,,
"CCCc1cc(-c2cc(CCC)c(O)c(CCC)c2)cc(CCC)c1O [Example 7 group, 4,4′-dihydroxy-3,3′,5,5′-tetrapropylbiphenyl]",2.1,153.46 ± 5.73,4.42 ± 0.39,4.97 ± 0.50,
"CC(C)c1cc(-c2cc(C(C)C)c(OC(=O)C(N)C(C)C)c(C(C)C)c2)cc(C(C)C)c1O (stereo not shown) [Example 11 group, 4′-hydroxy-3,3′,5,5′-tetraisopropylbiphenyl-2-amino-3-methylbutyrate]",2.2,150.72 ± 4.19,,4.92 ± 0.52,
"CCCc1cc(-c2cc(CCC)c(O)c(C(C)C)c2)cc(C(C)C)c1O [Example 6 group, 4,4′-dihydroxy-3,3′-diisopropyl-5,5′-dipropylbiphenyl]",2.0,151.63 ± 5.58,4.31 ± 0.51,4.26 ± 0.41,
"CC1=NN(c2ccccc2)C(=O)C1 [Edaravone injection, edaravone, reference compound]",,,,,"Fas average gray value (Fas; [8]): 138.95 ± 5.50; MDA CONTENT (MDA [2]; [8]): 5.98 ± 0.44 mmol/mL; MDA CONTENT (MDA [3]; ischemic reperfusion rat model, edaravone 3 mg/kg): 6.17 ± 0.54 mmol/mL"
"CC(C)c1cc(-c2cc(C(C)C)c(OC(=O)CCC(=O)O)c(C(C)C)c2)cc(C(C)C)c1O [Example 5 group, [4-(4′-hydroxy-3,3′,5,5′-tetraisopropylbiphenyl)oxy]-4-carbonyl butyric acid]",2.2,143.02 ± 5.53,4.68 ± 0.42,4.47 ± 0.34,
"CC(=O)Oc1c(C(C)C)cc(-c2cc(C(C)C)c(OC(C)=O)c(C(C)C)c2)cc1C(C)C [Example 2 group, 3,3′,5,5′-tetraisopropylbiphenyl-4′-diacetate]",2.1,149.63 ± 8.15,5.10 ± 0.82,5.44 ± 0.49,
"CC(C)c1cc(-c2cc(C(C)C)c(C(=O)O)c(C(C)C)c2)cc(C(C)C)c1O [Example 8 group, 4′-hydroxy-3,3′,5,5′-tetraisopropylbiphenyl-4-carboxylic acid]",2.3,145.24 ± 5.26,5.06 ± 0.28,5.12 ± 0.47,
